Test results taken from US8071605B2, “Piperidine compounds for use in the treatment of bacterial infections” (AstraZeneca AB, priority 2008, dated 2011).

target: S. aureus GyrB ATPase (Staphylococcus aureus, UniProt P0A0K8); assay: S. aureus GyrB ATPase inhibition (ammonium molybdate/malachite green phosphate detection); format: biochemical; conditions: compound concentration of 1 μM (unless otherwise noted)
Description: E. coli GyrB ATPase Inhibition Activity: Compounds can be tested for inhibition of E. coli GyrB ATPase activity using an ammonium molybdate/malachite green-based phosphate detection assay (Lanzetta, P. A., L. J. Alvarez, P. S. Reinach, and O. A. Candia, 1979, 100: 95-97). Assays can be performed in multiwell plates in 30 μl reactions containing: 50 mM Hepes buffer pH 7.5, 75 mM ammonium acetate, 8.0 mM magnesium chloride, 0.5 mM ethylenediaminetetraacetic acid, 5% glycerol, 1 mM 1,4-Dithio-DL-threitol, 200 nM bovine serum albumin, 1.6 μg/ml sheared salmon sperm DNA, 400 pM E. coli GyrA, 400 pM E. coli GyrB, 250 μM ATP, and compound in dimethylsulfoxide. Reactions can be quenched with 30 μl of ammonium molybdate/malachite green detection reagent containing 1.2 mM malachite green hydrochloride, 8.5 mM ammonium molybdate tetrahydrate, and 1 M hydrochloric acid. Plates can be read in an absorbance plate reader at 650 nm and percent inhibition values are calculated using dimethylsulfoxide (2%)-containing reactions as 0% inhibition and EDTA-containing (2.4 μM) reactions as 100% inhibition controls. An IC50 measurement of compound potency for each compound can be determined from reactions performed in the presence of 10 different compound concentrations. E. coli Topoisomerase IV ATPase Inhibition Activity: Compounds can be tested for inhibition of E. coli topoisomerase IV ATPase activity as described above for E. coli GyrB except the 30 μl reactions contained the following: 20 mM TRIS buffer pH 8, 50 mM ammonium acetate, 8 mM magnesium chloride, 5% glycerol, 5 mM 1,4-Dithio-DL-threitol, 0.005% Brij-35, 5 μg/ml sheared salmon sperm DNA, 500 pM E. coli ParC, 500 pM E. coli ParE, 160 μM ATP, and compound in dimethylsulfoxide. An IC50 measurement of compound potency for each compound can be determined from reactions performed in the presence of 10 different compound concentrations. S. aureus GyrB ATPase Inhibition Activity: Compounds may be tested for inhibition of S. aureus GyrB ATPase activity using an ammonium molybdate/malachite green-based phosphate detection assay (Lanzetta, P. A., L. J. Alvarez, P. S. Reinach, and O. A. Candia, 1979, 100: 95-97). Assays can be performed in multiwell plates in 30 μl reactions containing: 50 mM Hepes buffer pH 7.5, 75 mM ammonium acetate, 8.0 mM magnesium chloride, 0.5 mM ethylenediaminetetraacetic acid, 5% glycerol, 1.0 mM 1,4-Dithio-DL-threitol, 200 nM bovine serum albumin, 1.0 μg/ml sheared salmon sperm DNA, 250 pM E. coli GyrA, 250 pM S. aureus GyrB, 250 μM ATP, and compound in dimethylsulfoxide. Reactions can be quenched with 30 μl of ammonium molybdate/malachite green detection reagent containing 1.2 mM malachite green hydrochloride, 8.5 mM ammonium molybdate tetrahydrate, and 1 M hydrochloric acid. Plates can be read in an absorbance plate reader at 650 nm and percent inhibition values can be calculated using dimethylsulfoxide (2%)-containing reactions as 0% inhibition and EDTA-containing (2.4 μM) reactions as 100% inhibition controls. An IC50 measurement of compound potency for each compound can be determined from reactions performed in the presence of 10 different compound concentrations.
Compounds of the invention were tested in an assay substantially similar to the assay described above for measuring the inhibition of S. aureus GyrB ATPase. Percent inhibition of S. aureus GyrB ATPase at a compound concentration of 1 μM (unless otherwise noted) is disclosed in the following table: […]

S. aureus GyrB ATPase, sequence (P0AES4 whole entry): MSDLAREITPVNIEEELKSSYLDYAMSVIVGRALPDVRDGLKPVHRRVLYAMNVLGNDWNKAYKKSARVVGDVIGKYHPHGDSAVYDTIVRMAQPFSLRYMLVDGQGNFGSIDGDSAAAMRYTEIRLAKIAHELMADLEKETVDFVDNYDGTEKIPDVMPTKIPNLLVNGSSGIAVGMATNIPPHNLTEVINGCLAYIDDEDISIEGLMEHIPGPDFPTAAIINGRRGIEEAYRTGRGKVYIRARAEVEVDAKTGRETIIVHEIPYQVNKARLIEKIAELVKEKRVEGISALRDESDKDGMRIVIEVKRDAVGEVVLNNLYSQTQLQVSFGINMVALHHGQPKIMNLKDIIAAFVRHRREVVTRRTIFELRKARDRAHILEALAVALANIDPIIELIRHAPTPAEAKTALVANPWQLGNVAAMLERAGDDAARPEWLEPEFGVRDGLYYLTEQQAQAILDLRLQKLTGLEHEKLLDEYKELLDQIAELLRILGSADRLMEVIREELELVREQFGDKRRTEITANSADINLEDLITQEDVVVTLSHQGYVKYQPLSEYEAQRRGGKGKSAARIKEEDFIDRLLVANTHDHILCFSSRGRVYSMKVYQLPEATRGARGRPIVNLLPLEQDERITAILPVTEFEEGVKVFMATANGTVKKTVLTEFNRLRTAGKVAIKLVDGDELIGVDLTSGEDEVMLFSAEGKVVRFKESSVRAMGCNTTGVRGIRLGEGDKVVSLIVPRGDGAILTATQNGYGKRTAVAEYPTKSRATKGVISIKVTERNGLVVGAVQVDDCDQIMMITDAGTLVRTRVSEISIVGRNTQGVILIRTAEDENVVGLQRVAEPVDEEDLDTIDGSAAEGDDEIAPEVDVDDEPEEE
S. aureus GyrB ATPase, sequence (P0A0K8 whole entry): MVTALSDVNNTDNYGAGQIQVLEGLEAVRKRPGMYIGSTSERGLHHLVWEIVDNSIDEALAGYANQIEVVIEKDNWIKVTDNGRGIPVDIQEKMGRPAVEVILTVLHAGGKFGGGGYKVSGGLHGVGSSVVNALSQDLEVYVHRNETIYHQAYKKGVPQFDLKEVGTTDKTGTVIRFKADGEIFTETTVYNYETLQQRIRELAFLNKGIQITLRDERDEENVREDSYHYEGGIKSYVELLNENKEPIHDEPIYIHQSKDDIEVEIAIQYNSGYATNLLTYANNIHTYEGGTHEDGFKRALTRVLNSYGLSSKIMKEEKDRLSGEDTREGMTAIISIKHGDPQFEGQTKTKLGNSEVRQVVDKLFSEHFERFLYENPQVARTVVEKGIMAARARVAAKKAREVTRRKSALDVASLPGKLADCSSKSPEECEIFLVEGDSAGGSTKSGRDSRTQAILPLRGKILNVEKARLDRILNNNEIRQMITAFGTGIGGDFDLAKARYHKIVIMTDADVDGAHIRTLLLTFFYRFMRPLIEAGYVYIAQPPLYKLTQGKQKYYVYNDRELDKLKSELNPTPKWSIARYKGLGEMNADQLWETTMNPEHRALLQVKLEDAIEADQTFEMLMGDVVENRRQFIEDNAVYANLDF

Structure (SMILES)	inhibition at 1 µM
Cc1[nH]c(C(=O)N[C@@H]2CCN(c3nc(-c4cnc(NCCN5CCCC5=O)cn4)c(C(=O)O)s3)C[C@@H]2C)c(Cl)c1Cl [Example 169, 2-[(3S,4R)-4-{[(3,4-dichloro-5-methyl-1H-pyrrol-2-yl)carbonyl]amino}-3-methylpiperidin-1-yl]-4-(5-{[2-(2-oxopyrrolidin-1-yl)ethyl]amino}pyrazin-2-yl)-1,3-thiazole-5-carboxylic acid]	102%
COCCNc1cnc(-c2nc(N3CC[C@@H](NC(=O)c4[nH]c(C)c(Cl)c4Cl)[C@@H](C)C3)sc2C(=O)O)cn1 [Example 170, 2-[(3S,4R)-4-{[(3,4-dichloro-5-methyl-1H-pyrrol-2-yl)carbonyl]amino}-3-methylpiperidin-1-yl]-4-{5-[(2-methoxyethyl)amino]pyrazin-2-yl}-1,3-thiazole-5-carboxylic acid]	119%
Cc1[nH]c(C(=O)N[C@@H]2CCN(c3nc(-c4cnc(NCCN5CCOCC5)cn4)c(C(=O)O)s3)C[C@@H]2C)c(Cl)c1Cl [Example 171, 2-[(3S,4R)-4-{[(3,4-dichloro-5-methyl-1H-pyrrol-2-yl)carbonyl]amino}-3-methylpiperidin-1-yl]-4-(5-{[2-(morpholin-4-yl)ethyl]amino}pyrazin-2-yl)-1,3-thiazole-5-carboxylic acid]	101%
COCC(COC)Nc1cnc(-c2nc(N3CC[C@@H](NC(=O)c4[nH]c(C)c(Cl)c4Cl)[C@@H](C)C3)sc2C(=O)O)cn1 [Example 172, 2-[(3S,4R)-4-{[(3,4-dichloro-5-methyl-1H-pyrrol-2-yl)carbonyl]amino}-3-methylpiperidin-1-yl]-4-{5-[(1,3-dimethoxypropan-2-yl)amino]pyrazin-2-yl}-1,3-thiazole-5-carboxylic acid]	109%
Cc1[nH]c(C(=O)N[C@@H]2CCN(c3nc(-c4cnc(NCCN5CCNC5=O)cn4)c(C(=O)O)s3)C[C@@H]2C)c(Cl)c1Cl [Example 173, 2-[(3S,4R)-4-{[(3,4-dichloro-5-methyl-1H-pyrrol-2-yl)carbonyl]amino}-3-methylpiperidin-1-yl]-4-(5-{[2-(2-oxoimidazolidin-1-yl)ethyl]amino}pyrazin-2-yl)-1,3-thiazole-5-carboxylic acid]	104%
Cc1[nH]c(C(=O)N[C@@H]2CCN(c3nc(-c4cnc(NCCN(C)C)cn4)c(C(=O)O)s3)C[C@@H]2C)c(Cl)c1Cl [Example 174, 2-[(3S,4R)-4-{[(3,4-dichloro-5-methyl-1H-pyrrol-2-yl)carbonyl]amino}-3-methylpiperidin-1-yl]-4-(5-{[2-(dimethylamino)ethyl]amino}pyrazin-2-yl)-1,3-thiazole-5-carboxylic acid]	102%
Cc1[nH]c(C(=O)N[C@@H]2CCN(c3nc(-c4cnc(NCCN5CCN(C)CC5)cn4)c(C(=O)O)s3)C[C@@H]2C)c(Cl)c1Cl [Example 175, 2-[(3S,4R)-4-{[(3,4-dichloro-5-methyl-1H-pyrrol-2-yl)carbonyl]amino}-3-methylpiperidin-1-yl]-4-(5-{[2-(4-methylpiperazin-1-yl)ethyl]amino}pyrazin-2-yl)-1,3-thiazole-5-carboxylic acid]	106%
Cc1[nH]c(C(=O)N[C@@H]2CCN(c3nc(-c4cnc(N5CCN(CC(C)C)CC5)cn4)c(C(=O)O)s3)C[C@@H]2C)c(Cl)c1Cl [Example 176, 2-[(3S,4R)-4-{[(3,4-dichloro-5-methyl-1H-pyrrol-2-yl)carbonyl]amino}-3-methylpiperidin-1-yl]-4-{5-[4-(2-methylpropyl)piperazin-1-yl]pyrazin-2-yl}-1,3-thiazole-5-carboxylic acid]	108%
Cc1[nH]c(C(=O)N[C@@H]2CCN(c3nc(-c4cnc(N5CCN(CC6CCCN(C)C6)CC5)cn4)c(C(=O)O)s3)C[C@@H]2C)c(Cl)c1Cl (stereo partly drawn) [Example 177, 2-[(3S,4R)-4-{[(3,4-dichloro-5-methyl-1H-pyrrol-2-yl)carbonyl]amino}-3-methylpiperidin-1-yl]-4-(5-{4-[(1-methylpiperidin-3-yl)methyl]piperazin-1-yl}pyrazin-2-yl)-1,3-thiazole-5-carboxylic acid]	107%
